Experimental data as given in article PMC6695626, “Detection of Osmotic Shock-Induced Extracellular Nucleotide Release with a Genetically Encoded Fluorescent Sensor of ADP and ATP” (Sensors (Basel, Switzerland), 2019).

Target: T1, ADP sensor (mTFP1-ParM-mVenus cp157 terminal fusion; ADPrime sensor, soluble form) (Escherichia coli, UniProt P11904, C287A/K33A/T174A/T175N)
T1 construct: ParM flanked by FRET reporters: wild-type mTFP1 via SGITS linker at N-terminus, mVenus-cp157 via AAA linker at C-terminus; expressed in E. coli DH5alpha
T1 sequence (P11904 1-320 K33A/T174A/T175N/C287A): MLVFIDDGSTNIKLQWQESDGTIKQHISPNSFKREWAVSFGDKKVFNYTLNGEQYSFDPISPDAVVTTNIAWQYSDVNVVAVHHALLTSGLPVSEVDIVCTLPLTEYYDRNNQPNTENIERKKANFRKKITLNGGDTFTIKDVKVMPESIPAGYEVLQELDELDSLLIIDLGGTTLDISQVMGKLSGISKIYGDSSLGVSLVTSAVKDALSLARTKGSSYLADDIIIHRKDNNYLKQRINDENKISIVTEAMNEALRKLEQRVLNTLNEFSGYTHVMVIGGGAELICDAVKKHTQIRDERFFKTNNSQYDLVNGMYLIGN
Assay: FRET ratio (mTFP1/mVenus) dose response, Hill fit
Format: binding
Settings: read-out: apparent Kd

Row | SMILES | Kd [µM]
1 | Nc1ncnc2c1ncn2[C@@H]1O[C@H](COP(=O)(O)OP(=O)(O)O)[C@@H](O)[C@H]1O [ADP] | 0.16 ± 0.06
2 | Nc1ncnc2c1ncn2[C@@H]1O[C@H](COP(=O)(O)OP(=O)(O)OP(=O)(O)O)[C@@H](O)[C@H]1O [ATP] | 9.9 ± 6.3
